The values below come from patent US20240279215A1 (Cytokinetics, Incorporated, priority 2022, published 2024).

Chain of human NAMPT (P43490 whole entry): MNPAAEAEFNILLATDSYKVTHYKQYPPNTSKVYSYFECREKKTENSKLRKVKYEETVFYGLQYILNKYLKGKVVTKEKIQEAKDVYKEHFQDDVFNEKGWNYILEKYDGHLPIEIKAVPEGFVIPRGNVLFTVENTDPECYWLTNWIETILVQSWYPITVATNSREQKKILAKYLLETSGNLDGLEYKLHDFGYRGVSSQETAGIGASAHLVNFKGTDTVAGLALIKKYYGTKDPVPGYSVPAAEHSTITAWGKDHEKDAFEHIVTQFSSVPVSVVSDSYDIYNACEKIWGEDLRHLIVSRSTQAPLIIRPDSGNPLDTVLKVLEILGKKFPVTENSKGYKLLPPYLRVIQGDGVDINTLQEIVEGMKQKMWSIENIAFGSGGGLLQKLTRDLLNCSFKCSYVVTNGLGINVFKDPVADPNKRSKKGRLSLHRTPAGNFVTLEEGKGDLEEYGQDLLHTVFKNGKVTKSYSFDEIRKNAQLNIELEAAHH

For the test, the target named is human NAMPT (Homo sapiens (Human), UniProt P43490). Put plainly: NMN fluorescence biochemical assay (human recombinant NAMPT enzyme assay). In outline:
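Activation of recombinant human NAMPT (6 nM) was tested with 2.5 mM ATP, 20 μM PRPP and 150 μM nicotinamide in 50 mM HEPES pH 7.2 for 60 min at ambient temperature. NMN was derivatized with acetophenone/KOH/formic acid and read by fluorescence (355/460 nm) after 40 min.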
Regarding `O=C(Nc1ccc(CC2CCN(C3COC3)CC2)cc1)OCc1cnco1` [Compound 80, oxazol-5-ylmethyl (4-((1-(oxetan-3-yl)piperidin-4-yl)methyl)phenyl)carbamate], the “AC1.4 Human” value amounted to 0.66 µM and the EC50 worked out at 29 µM.

For the molecule `CN1CC(=O)NC[C@@H]1c1ccc(NC(=O)OCc2ccc(Cl)cc2F)cc1` [Compound 81, 4-chloro-2-fluorobenzyl (S)-(4-(1-methyl-5-oxopiperazin-2-yl)phenyl)carbamate], the “AC1.4 Human” value was 0.66 µM and the EC50 came out at 3.41 µM.

In the case of `CCc1ccc(C(=O)NCc2ccc(NC(=O)OCc3ccc(Cl)cc3)cc2)cn1` [Compound 82, (4-chlorophenyl)methyl N-(4-{[(6-ethylpyridin-3-yl)formamido]methyl}phenyl)carbamate], the “AC1.4 Human” value was 0.66 µM and the EC50 stood at 3.9 µM.

As to `COc1ccc(COC(=O)Nc2ccc(CN3CCN(c4ccccn4)CC3)cc2)cc1` [Compound 83, (4-methoxyphenyl)methyl N-(4-{[4-(pyridin-2-yl)piperazin-1-yl]methyl}phenyl)carbamate], the “AC1.4 Human” value was 0.66 µM and the EC50 worked out at 8.11 µM.

Regarding `O=C(Nc1ccc(CN2CCC3(CC3)C2=O)cc1)OCc1ccc(Cl)cc1` [Compound 84, (4-chlorophenyl)methyl N-[4-({4-oxo-5-azaspiro[2.4]heptan-5-yl}methyl)phenyl]carbamate], the “AC1.4 Human” value stood at 0.66 µM and the EC50 worked out at 3.12 µM.

For the molecule `Cc1ncc(C(=O)N(C)Cc2ccc(NC(=O)OCc3ccc(Cl)cc3)cc2)o1` [Compound 85, (4-chlorophenyl)methyl N-(4-{[N-methyl-1-(2-methyl-1,3-oxazol-5-yl)formamido]methyl}phenyl)carbamate], the “AC1.4 Human” value amounted to 0.67 µM and the concentration for a half-maximal effect (EC50) came out at 6.38 µM.

`O=C(Nc1ccc(CN2CCOCC2=O)cc1)OCc1ccc(Cl)cc1` [Compound 86, (4-chlorophenyl)methyl N-{4-[(3-oxomorpholin-4-yl)methyl]phenyl}carbamate]: the “AC1.4 Human” value was 0.68 µM and the EC50 was 6.21 µM.

In the case of `CC(C)C(=O)N1CCC(Cc2ccc(NC(=O)OCc3ccc(Cl)cc3)cc2)CC1` [Compound 87, 4-chlorobenzyl (4-((1-isobutyrylpiperidin-4-yl)methyl)phenyl)carbamate], the “AC1.4 Human” value stood at 0.68 µM and the EC50 stood at 1.75 µM.

In the case of `O=C(Nc1ccc(C2CCN(CC(F)(F)F)CC2)cc1)OCc1cnco1` [Compound 88, 1,3-oxazol-5-ylmethyl N-{4-[1-(2,2,2-trifluoroethyl)piperidin-4-yl]phenyl}], the “AC1.4 Human” value was found to be 0.69 µM and the EC50 was found to be 37.4 µM.

With `C[C@@H](c1ccc(NC(=O)OCc2ccc(Cl)cc2)cc1)N(C)C(=O)N1CCC1` [Compound 89, 4-chlorobenzyl (S)-(4-(1-(N-methylazetidine-1-carboxamido)ethyl)phenyl)carbamate], the “AC1.4 Human” value was 0.71 µM and the half-maximal effective concentration (EC50) stood at 9.4 µM.

Regarding `COc1cc(C(=O)N(C)Cc2ccc(NC(=O)OCc3ccc(Cl)cc3)cc2)n(C)n1` [Compound 90, (4-chlorophenyl)methyl N-(4-{[1-(5-methoxy-2-methylpyrazol-3-yl)-N-methylformamido]methyl}phenyl)carbamate], the “AC1.4 Human” value came to 0.72 µM and the concentration giving a half-maximal response (EC50) was found to be 7.32 µM.

Consider `CN(Cc1ccc(NC(=O)OCc2ccc(Cl)cc2)cc1)C(=O)c1ccn[nH]1` [Compound 91, (4-chlorophenyl)methyl N-{4-[(N-methyl-1-2H-pyrazol-3-ylformamido)methyl]phenyl}carbamate], for which the “AC1.4 Human” value was 0.74 µM and the EC50 came to 3.8 µM.

`COc1cnn(C)c1C(=O)N[C@@H](C)c1ccc(NC(=O)OCc2ccc(Cl)cc2)cc1` [Compound 92, (4-chlorophenyl)methyl N-{4-[(1S)-1-[(4-methoxy-2-methylpyrazol-3-yl)formamido]ethyl]phenyl}carbamate]: the “AC1.4 Human” value was 0.75 µM and the EC50 amounted to 3.22 µM.

Usually EC50 stands for the concentration needed to bring the measured effect to its halfway point.
